# Reference: patent US8741934B2, “Inhibitors of ion channels” (Pfizer Limited, priority 2007, dated 2014)
# Like-named read-outs stand apart in the source and are kept apart here.
# Target: T1, hSCN3A sodium channels (Homo sapiens, UniProt Q9NY46)
# T1 construct: expressed in transfected cells
# Experiment: hSCN3A electrophysiology, whole-cell patch-clamp or PatchXpress 7000, estimated IC-50 (Table B)
# Format: cell-based
# Conditions: read-out: SCN3A EIC-50
# In short: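 A 20 msec test pulse to 0 mV followed an 8 sec conditioning prepulse at each cell's measured V1/2. Room-temperature (22-24° C) recordings on HEK cells stably expressing the channel, conventional or PatchXpress.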
# [1] = estimated IC-50, hSCN3A cells, whole-cell patch-clamp or PatchXpress 7000
# T1 sequence (Q9NY46 whole entry): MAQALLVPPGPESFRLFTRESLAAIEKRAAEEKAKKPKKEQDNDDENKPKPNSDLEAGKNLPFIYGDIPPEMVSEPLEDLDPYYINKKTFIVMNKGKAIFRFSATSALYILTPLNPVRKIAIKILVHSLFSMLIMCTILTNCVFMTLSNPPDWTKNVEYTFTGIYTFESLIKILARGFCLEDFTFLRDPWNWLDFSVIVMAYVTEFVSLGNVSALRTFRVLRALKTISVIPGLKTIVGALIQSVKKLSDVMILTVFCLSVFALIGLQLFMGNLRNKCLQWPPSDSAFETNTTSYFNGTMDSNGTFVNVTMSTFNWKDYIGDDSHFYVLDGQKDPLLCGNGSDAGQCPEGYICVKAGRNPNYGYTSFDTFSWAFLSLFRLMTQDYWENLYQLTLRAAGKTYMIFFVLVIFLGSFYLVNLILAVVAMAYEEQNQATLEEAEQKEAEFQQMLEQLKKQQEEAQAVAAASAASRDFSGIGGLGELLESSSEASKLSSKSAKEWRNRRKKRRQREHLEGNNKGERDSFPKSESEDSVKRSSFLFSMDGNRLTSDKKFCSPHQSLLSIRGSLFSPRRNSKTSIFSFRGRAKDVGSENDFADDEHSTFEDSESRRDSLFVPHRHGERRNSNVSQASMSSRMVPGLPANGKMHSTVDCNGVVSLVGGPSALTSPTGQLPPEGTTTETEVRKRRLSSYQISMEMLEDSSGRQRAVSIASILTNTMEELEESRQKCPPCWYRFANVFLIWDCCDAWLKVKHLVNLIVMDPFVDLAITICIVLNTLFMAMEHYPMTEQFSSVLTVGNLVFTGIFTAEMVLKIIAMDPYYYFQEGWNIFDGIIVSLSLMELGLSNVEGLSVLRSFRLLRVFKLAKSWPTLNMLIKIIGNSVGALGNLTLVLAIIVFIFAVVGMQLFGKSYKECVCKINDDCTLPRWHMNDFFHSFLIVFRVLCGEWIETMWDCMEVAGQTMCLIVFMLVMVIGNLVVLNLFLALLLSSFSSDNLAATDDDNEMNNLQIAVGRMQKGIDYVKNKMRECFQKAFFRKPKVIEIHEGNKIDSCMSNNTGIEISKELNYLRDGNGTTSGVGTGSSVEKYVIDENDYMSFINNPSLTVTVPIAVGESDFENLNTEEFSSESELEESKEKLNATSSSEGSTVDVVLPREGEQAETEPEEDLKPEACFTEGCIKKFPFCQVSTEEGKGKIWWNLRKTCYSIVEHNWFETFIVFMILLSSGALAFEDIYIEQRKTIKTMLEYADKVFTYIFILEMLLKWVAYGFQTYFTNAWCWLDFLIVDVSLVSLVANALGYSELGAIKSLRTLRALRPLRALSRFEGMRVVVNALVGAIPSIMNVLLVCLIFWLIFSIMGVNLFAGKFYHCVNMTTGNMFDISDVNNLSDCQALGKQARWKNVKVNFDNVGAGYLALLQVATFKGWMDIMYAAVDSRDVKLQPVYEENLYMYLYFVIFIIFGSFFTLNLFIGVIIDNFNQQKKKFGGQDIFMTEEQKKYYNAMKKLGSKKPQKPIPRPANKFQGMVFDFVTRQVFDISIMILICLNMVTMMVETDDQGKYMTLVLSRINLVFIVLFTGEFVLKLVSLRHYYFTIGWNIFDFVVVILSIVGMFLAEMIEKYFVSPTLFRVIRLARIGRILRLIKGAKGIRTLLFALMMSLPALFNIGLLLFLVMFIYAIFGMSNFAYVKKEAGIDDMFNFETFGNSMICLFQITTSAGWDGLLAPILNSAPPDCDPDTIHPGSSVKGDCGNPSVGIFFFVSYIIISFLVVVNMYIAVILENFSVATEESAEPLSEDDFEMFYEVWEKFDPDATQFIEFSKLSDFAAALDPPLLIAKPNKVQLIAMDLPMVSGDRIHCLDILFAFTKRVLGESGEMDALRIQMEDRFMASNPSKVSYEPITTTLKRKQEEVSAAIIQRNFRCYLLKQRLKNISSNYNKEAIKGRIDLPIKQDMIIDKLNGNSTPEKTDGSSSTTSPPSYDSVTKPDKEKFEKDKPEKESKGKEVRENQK
Structure (SMILES),IC50 [1] [nM],IC50 [nM]
"Cc1ccc(CNC(=O)c2ccc(S(=O)(=O)Nc3nccs3)cc2)cc1Cl [Example 400, N-(3-chloro-4-methylbenzyl)-4-[(1,3-thiazol-2-ylamino)sulfonyl] benzamide]",70,–
"O=C(NCc1ccc(OC(F)(F)F)cc1)c1ccc(S(=O)(=O)Nc2ncc(Cl)s2)c(Cl)c1 [Example 362, 3-Chloro-4-{[(5-chloro-1,3-thiazol-2-yl)amino]sulfonyl}-N-[4-(trifluoromethoxy)benzyl]benzamide]",1090,–
"O=C(NCc1cccc(OC(F)(F)F)c1)c1ccc(S(=O)(=O)Nc2nccs2)c(F)c1 [Example 296, 3-Fluoro-4-[(1,3-thiazol-2-ylamino)sulfonyl]-N-[3-(trifluoromethoxy)benzyl]benzamide]",190,–
"Cc1ccccc1O[C@H]1CCN(C(=O)c2ccc(S(=O)(=O)Nc3nccs3)cc2)C1 [Example 198, 4-{[(3S)-3-(2-methylphenoxy)pyrrolidin-1-yl]carbonyl}-N-1,3-thiazol-2-yl-benzenesulfonamide]",3030,–
"Cc1noc(C)c1NS(=O)(=O)c1ccc(C(=O)NCc2ccc(C(F)(F)F)cc2)cc1 [Example 26, 4-{[(3,5-Dimethylisoxazol-4-yl)amino]sulfonyl}-N-[4-(trifluoromethyl)benzyl]benzamide]",> 10000,–
"O=C(NCc1ccc(C(F)(F)F)c(Cl)c1)c1ccc(S(=O)(=O)Nc2nccs2)c(F)c1 [Example 306, N-[3-chloro-4-(trifluoromethyl)benzyl]-3-fluoro-4-[(1,3-thiazol-2-ylamino)sulfonyl]benzamide]",40,–
"O=C(NCc1ccc(F)c(C2CC2)c1)c1ccc(S(=O)(=O)Nc2nccs2)cc1 [Example 54, N-(3-cyclopropyl-4-fluorobenzyl)-4-[(1,3-thiazol-2-ylamino)sulfonyl]benzamide]",120,–
"Cn1cc(NS(=O)(=O)c2ccc(C(=O)NCc3ccc(C(F)(F)F)cc3)cc2)cn1 [Example 10, 4-{[(1-Methyl-1H-pyrazol-4-yl)amino]sulfonyl}-N-[4-(trifluoromethyl)benzyl]benzamide]",1510,–
"O=C(NC(c1cccc(C(F)(F)F)c1F)C1CC1)c1ccc(S(=O)(=O)Nc2nccs2)cc1 (centres unmarked) [Example 119, N-{cyclopropyl[2-fluoro-3-(trifluoromethyl)phenyl]methyl}-4-[(1,3-thiazol-2-ylamino)sulfonyl]benzamide]",1290,–
"O=C(c1ccc(S(=O)(=O)Nc2nccs2)cc1)N1CC[C@H](Oc2ccccc2Cl)C1 [Example 200, 4-{[(3S)-3-(2-chlorophenoxy)pyrrolidin-1-yl]carbonyl}-N-1,3-thiazol-2-yl-benzenesulfonamide]",3600,–
"O=C(NCc1ccc(F)c(Cl)c1)c1ccc(S(=O)(=O)Nc2ncc(Cl)s2)cc1 [Example 36, N-(3-Chloro-4-fluorobenzyl)-4-{[(5-chloro-1,3-thiazol-2-yl)amino]sulfonyl}benzamide]",70,–
"O=C(c1ccc(S(=O)(=O)Nc2nccs2)cc1)N1CCO[C@H]2Cc3ccccc3[C@H]21 [Example 52, 4-[(4aR,9aS)-2,3,9,9a-tetrahydroindeno[2,1-b][1,4]oxazin-4(4aH)-ylcarbonyl]-N-1,3-thiazol-2-ylbenzenesulfonamide]",2910,–
"O=C(NCc1ccccc1SC(F)(F)F)c1ccc(S(=O)(=O)Nc2nccs2)cc1 [Example 122, 4-[(1,3-Thiazol-2-ylamino)sulfonyl]-N-{2-[(trifluoromethyl)thio]benzyl}benzamide]",1300,–
"O=C(NCc1cccc(-c2ccccc2)c1)c1ccc(S(=O)(=O)Nc2nccs2)cc1 [Example 411, N-(biphenyl-3-ylmethyl)-4-[(1,3-thiazol-2-ylamino)sulfonyl] benzamide]",120,–
"Cc1noc(NS(=O)(=O)c2ccc(C(=O)NCc3ccc(C(F)(F)F)cc3)cc2)c1C [Example 12, 4-{[(3,4-Dimethylisoxazol-5-yl)amino]sulfonyl}-N-[4-(trifluoromethyl)benzyl]benzamide]",29600,–
"O=C(NCc1ccc(Cl)nc1)c1ccc(S(=O)(=O)Nc2nccs2)cc1 [Example 407, N-[(6-chloropyridin-3-yl)methyl]-4-[(1,3-thiazol-2-ylamino)sulfonyl] benzamide]",1780,–
"O=C(NCc1ccc(Cl)c(Cl)c1)c1ccc(S(=O)(=O)Nc2ncc(Cl)s2)c(Cl)c1 [Example 368, 3-Chloro-4-{[(5-chloro-1,3-thiazol-2-yl)amino]sulfonyl}-N-(3,4-dichlorobenzyl) benzamide]",400,–
"O=C(Nc1nccc2cccnc12)c1ccc(S(=O)(=O)Nc2nccs2)cc1 [Example 116, N-1,7-naphthyridin-8-yl-4-[(1,3-thiazol-2-ylamino)sulfonyl]benzamide]",> 100,–
"COc1ccccc1C1CN(C(=O)c2ccc(S(=O)(=O)Nc3nccs3)cc2)CCO1 (centres unmarked) [Example 232, 4-{[2-(2-Methoxyphenyl)morpholin-4-yl]carbonyl}-N-1,3-thiazol-2-yl-benzenesulfonamide]",3420,–

Structure (SMILES),IC50 [1] [nM],IC50 [nM]
"O=C(Nc1ccn(Cc2ccc(Cl)cc2)n1)c1ccc(S(=O)(=O)Nc2nccs2)cc1 [Example 308, N-[1-(4-chlorobenzyl)-1H-pyrazol-3-yl]-4-[(1,3-thiazol-2-ylamino)sulfonyl]benzamide]",320,–
"N#Cc1cccc(CNC(=O)c2ccc(S(=O)(=O)Nc3nccs3)cc2)c1 [Example 180, N-(3-cyanobenzyl)-4-[(1,3-thiazol-2-ylamino)sulfonyl]benzamide]",> 1000,–
"CC(C)(NC(=O)c1ccc(S(=O)(=O)Nc2nccs2)cc1)c1ccc(C(F)(F)F)cc1 [Example 123, N-{1-methyl-1-[4-(trifluoromethyl)phenyl]ethyl}-4-[(1,3-thiazol-2-ylamino)sulfonyl]benzamide]",1440,–
"O=C(NCc1ccc(C(F)(F)F)cc1)c1ccc(S(=O)(=O)Nc2nccs2)cn1 [Example 342, 5-[(1,3-Thiazol-2-ylamino)sulfonyl]-N-[4-(trifluoromethyl)benzyl] pyridine-2-carboxamide]",510,–
"N#Cc1cc(S(=O)(=O)Nc2ncc(Cl)s2)ccc1C(=O)NCc1ccc(C(F)(F)F)cc1 [Example 347, 4-{[(5-Chloro-1,3-thiazol-2-yl)amino]sulfonyl}-2-cyano-N-[4-(trifluoromethyl)benzyl]benzamide]",1620,–
"O=C(NCc1cccc(F)c1)c1ccc(S(=O)(=O)Nc2nccs2)cc1 [Example 90, N-(3-fluorobenzyl)-4-[(1,3-thiazol-2-ylamino)sulfonyl]benzamide]",1660,–
"O=C(NCc1ccc(Cl)c(F)c1)c1ccc(S(=O)(=O)Nc2nccs2)cc1F [Example 334, N-(4-chloro-3-fluorobenzyl)-2-fluoro-4-[(1,3-thiazol-2-ylamino)sulfonyl] benzamide]",340,–
"CC(CNC(=O)c1ccc(S(=O)(=O)Nc2nccs2)cc1)Oc1ccccc1Cl (centres unmarked) [Example 147, N-[2-(2-chlorophenoxy)propyl]-4-[(1,3-thiazol-2-ylamino)sulfonyl]benzamide]",2520,–
"CC1(c2ccc(Cl)cc2)CCN(C(=O)c2ccc(S(=O)(=O)Nc3nccs3)cc2)CC1 [Example 195, 4-{[4-(4-Chlorophenyl)-4-methylpiperidin-1-yl]carbonyl}-N-1,3-thiazol-2-yl-benzenesulfonamide]",280,–
"COc1cccc(CNC(=O)c2ccc(S(=O)(=O)Nc3nccs3)cc2)c1 [Example 170, N-(3-methoxybenzyl)-4-[(1,3-thiazol-2-ylamino)sulfonyl]benzamide]",3920,–
"O=C(NCc1ccc(C(F)(F)F)c(Cl)c1)c1ccc(S(=O)(=O)Nc2nccs2)cn1 [Example 341, N-[3-chloro-4-(trifluoromethyl)benzyl]-5-[(1,3-thiazol-2-ylamino)sulfonyl] pyridine-2-carboxamide]",–,190
"O=C(c1ccc(S(=O)(=O)Nc2nccs2)cc1)N1CCC[C@H]1COc1cccc(Cl)c1 [Example 384, 4-({(2S)-2-[(3-chlorophenoxy)methyl]pyrrolidin-1-yl}carbonyl)-N-1,3-thiazol-2-ylbenzenesulfonamide]",350,–
"O=C(NCc1ccc(C(F)(F)F)c(F)c1)c1ccc(S(=O)(=O)Nc2ncc(Cl)s2)cc1F [Example 356, 4-{[(5-Chloro-1,3-thiazol-2-yl)amino]sulfonyl}-2-fluoro-N-[3-fluoro-4-(trifluoromethyl)benzyl]benzamide]",210,–
"O=C(Nc1ccc2c(n1)CCC2)c1ccc(S(=O)(=O)Nc2nccs2)cc1 [Example 172, N-(6,7-dihydro-5H-cyclopenta[b]pyridin-2-yl)-4-[(1,3-thiazol-2-ylamino)sulfonyl]benzamide]",6520,–
"O=C(NCCNc1ccc(Cl)cc1)c1ccc(S(=O)(=O)Nc2nccs2)cc1 [Example 385, N-{2-[(4-chlorophenyl)amino]ethyl}-4-[(1,3-thiazol-2-ylamino)sulfonyl]benzamide]",780,–
"O=C(NCc1ccc(C(F)(F)F)cc1)c1ccc(S(=O)(=O)Nc2nccs2)c(Cl)c1 [Example 287, 3-Chloro-4-[(1,3-thiazol-2-ylamino)sulfonyl]-N-[4-(trifluoromethyl)benzyl]benzamide]",220,–
"Cc1ccc(OC2CCCN(C(=O)c3ccc(S(=O)(=O)Nc4nccs4)cc3)C2)cc1 (centres unmarked) [Example 249, 4-{[3-(4-mMethylphenoxy)piperidin-1-yl]carbonyl}-N-1,3-thiazol-2-yl-benzenesulfonamide]",1660,–
"O=C(NCc1ccc(OC(F)(F)F)c(F)c1)c1ccc(S(=O)(=O)Nc2ncns2)c(F)c1 [Example 318, 3-Fluoro-N-[3-fluoro-4-(trifluoromethoxy)benzyl]-4-[(1,2,4-thiadiazol-5-ylamino)sulfonyl]benzamide]",140,–
"O=C(NCc1ccc(C(F)(F)F)cc1F)c1ccc(S(=O)(=O)Nc2nccs2)cc1 [Example 397, N-[2-fluoro-4-(trifluoromethyl)benzyl]-4-[(1,3-thiazol-2-ylamino)sulfonyl] benzamide]",220,–
